Patent US8562949B2, “Radiolabeled dihydrotetrabenazine derivatives and their use as imaging agents” (The Trustees of the University of Pennsylvania, priority 2006, dated 2013)

How the values were obtained:
DAT sites = DAT sites (Mus musculus, UniProt Q61327); assay: Dual isotope experiment in lesioned mice, [125I]IPT
Description: Thirty minutes after injection, the mice were sacrificed and the brains removed. Different regions corresponding to striatum (ST), hippocampus (HP), cerebellum (CB), and cortex (CX) were dissected. In particular, the lesioned region was separated from non-lesioned area of the striatal tissues. Samples were counted in a gamma counter with two different window settings for F-18 and I-125, respectively, to obtain the regional distribution of each tracer.
To measure the degree of lesion, a dual-isotope experiment comparing the striatal uptakes in lesioned vs. unlesioned sites using [^18F]FP-DTBZ was performed. A marker [^125I]IPT (selective for dopamine transporters) was injected simultaneously.

VMAT2 = VMAT2 (Rattus norvegicus, UniProt Q01827); assay: Competition for [3H](±)TBZ binding in rat striatal homogenates; design: The basal forebrain regions of rat and mouse brains were then dissected; from tissue; host or cells: rat striatum / basal forebrain homogenate; details: [3H](±)-TBZ, Kd […] used for calculation
[1] = lesioned Mouse 1, 30 min post-injection
[2] = lesioned Mouse 2, 30 min post-injection
[3] = lesioned Mouse 3, 30 min post-injection
[4] = lesioned Mouse 4, 30 min post-injection

Chain of DAT sites (Q61327 whole entry): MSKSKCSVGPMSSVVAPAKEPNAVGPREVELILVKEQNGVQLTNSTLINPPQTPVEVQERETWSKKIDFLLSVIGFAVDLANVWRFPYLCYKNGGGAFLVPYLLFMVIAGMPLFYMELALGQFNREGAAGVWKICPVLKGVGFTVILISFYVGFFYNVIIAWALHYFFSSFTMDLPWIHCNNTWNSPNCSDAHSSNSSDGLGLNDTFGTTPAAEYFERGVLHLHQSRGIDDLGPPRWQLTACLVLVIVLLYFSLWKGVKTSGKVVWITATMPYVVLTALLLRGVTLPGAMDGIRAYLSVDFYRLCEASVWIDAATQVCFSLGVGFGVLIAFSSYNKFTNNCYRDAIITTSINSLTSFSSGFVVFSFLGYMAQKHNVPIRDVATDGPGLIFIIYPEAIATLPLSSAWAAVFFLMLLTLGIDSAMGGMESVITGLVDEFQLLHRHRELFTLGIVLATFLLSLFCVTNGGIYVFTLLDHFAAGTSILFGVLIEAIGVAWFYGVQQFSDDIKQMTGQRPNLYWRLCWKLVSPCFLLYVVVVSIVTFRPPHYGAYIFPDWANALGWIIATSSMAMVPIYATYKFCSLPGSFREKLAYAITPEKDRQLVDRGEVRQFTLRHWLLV
Chain of VMAT2 (Q01827 whole entry): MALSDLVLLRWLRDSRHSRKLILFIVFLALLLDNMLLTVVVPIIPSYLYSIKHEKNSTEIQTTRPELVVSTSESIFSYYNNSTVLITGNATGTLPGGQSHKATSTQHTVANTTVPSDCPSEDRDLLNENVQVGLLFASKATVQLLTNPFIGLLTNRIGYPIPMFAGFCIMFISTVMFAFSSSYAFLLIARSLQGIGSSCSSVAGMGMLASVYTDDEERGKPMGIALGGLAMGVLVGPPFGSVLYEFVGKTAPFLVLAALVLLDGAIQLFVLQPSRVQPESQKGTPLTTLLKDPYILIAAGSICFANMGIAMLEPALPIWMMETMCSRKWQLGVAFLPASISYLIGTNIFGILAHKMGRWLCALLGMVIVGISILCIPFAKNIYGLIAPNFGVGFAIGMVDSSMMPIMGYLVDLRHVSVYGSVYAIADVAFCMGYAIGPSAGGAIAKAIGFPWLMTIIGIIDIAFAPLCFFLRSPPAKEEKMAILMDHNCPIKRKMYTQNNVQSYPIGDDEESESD

## COC(=O)C1C(c2ccc(Cl)cc2)CC2CCC1N2CC=CI (stereo not drawn) [[^125I]IPT, N-(3′-iodopropen-2′-yl)-2-beta-carbomethoxy-3-beta-(4-chlorophenyl)tropane]
DAT sites; [1]
  % StrL/StrN: 32.6%
  Regional brain distribution Cerebellum (CB): 0.96 % dose/g
  Regional brain distribution Cortex: 0.69 % dose/g
  Regional brain distribution Hippocampus: 0.87 % dose/g
  Regional brain distribution Hypothalamus: 1.28 % dose/g
  Regional brain distribution Remainder: 1.34 % dose/g
  ratio vs. CB, Cerebellum (CB): 1.00
  ratio vs. CB, Cortex: 0.72
  ratio vs. CB, Hippocampus: 0.91
  ratio vs. CB, Hypothalamus: 1.34
  ratio vs. CB, Remainder: 1.40
  ratio vs. CB, Stratum N: 9.63
  ratio vs. CB, Striatum L: 3.14
DAT sites; [2]
  % StrL/StrN: 55.7%
  Regional brain distribution Cerebellum (CB): 0.77 % dose/g
  Regional brain distribution Cortex: 0.62 % dose/g
  Regional brain distribution Hippocampus: 0.70 % dose/g
  Regional brain distribution Hypothalamus: 1.22 % dose/g
  Regional brain distribution Remainder: 1.16 % dose/g
  ratio vs. CB, Cerebellum (CB): 1.00
  ratio vs. CB, Cortex: 0.80
  ratio vs. CB, Hippocampus: 0.90
  ratio vs. CB, Hypothalamus: 1.58
  ratio vs. CB, Remainder: 1.49
  ratio vs. CB, Stratum N: 8.17
  ratio vs. CB, Striatum L: 4.55
DAT sites; [3]
  % StrL/StrN: 52.3%
  Regional brain distribution Cerebellum (CB): 0.81 % dose/g
  Regional brain distribution Cortex: 0.66 % dose/g
  Regional brain distribution Hippocampus: 0.81 % dose/g
  Regional brain distribution Hypothalamus: 1.42 % dose/g
  Regional brain distribution Remainder: 1.57 % dose/g
  ratio vs. CB, Cerebellum (CB): 1.00
  ratio vs. CB, Cortex: 0.81
  ratio vs. CB, Hippocampus: 1.00
  ratio vs. CB, Hypothalamus: 1.76
  ratio vs. CB, Remainder: 1.95
  ratio vs. CB, Stratum N: 11.3
  ratio vs. CB, Striatum L: 5.90
DAT sites; [4]
  % StrL/StrN: 88.7%
  Regional brain distribution Cerebellum (CB): 0.76 % dose/g
  Regional brain distribution Cortex: 0.87 % dose/g
  Regional brain distribution Hippocampus: 0.62 % dose/g
  Regional brain distribution Hypothalamus: 0.99 % dose/g
  Regional brain distribution Remainder: 1.16 % dose/g
  ratio vs. CB, Cerebellum (CB): 1.00
  ratio vs. CB, Cortex: 1.15
  ratio vs. CB, Hippocampus: 0.81
  ratio vs. CB, Hypothalamus: 1.31
  ratio vs. CB, Remainder: 1.53
  ratio vs. CB, Stratum N: 10.2
  ratio vs. CB, Striatum L: 9.07

## COc1cc2c(cc1OCCCF)CCN1CC(CC(C)C)C(O)CC21 (racemic) [Compound 6b, (±)-2-hydroxy-3-isobutyl-9-(3-fluoropropoxy)-10-methoxy-1,2,3,4,6,7-hexahydro-11bH-benzo[a]quinolizine]
VMAT2
  Ki: 0.19 ± 0.04 nM
